In ChEMBL document CHEMBL5291721, “A preclinical secondary pharmacology resource illuminates target-adverse drug reaction associations of marketed drugs” (Nat Commun, 2023):

Experiments:
[1] = target: Delta-type opioid receptor (Homo sapiens, UniProt P41143)
[2] = target: Sodium-dependent noradrenaline transporter (Homo sapiens, UniProt P23975)
[3] = target: T1, Prostaglandin G/H synthase 1 (Rattus norvegicus, UniProt Q63921); type: functional
T1 sequence (Q63921 whole entry): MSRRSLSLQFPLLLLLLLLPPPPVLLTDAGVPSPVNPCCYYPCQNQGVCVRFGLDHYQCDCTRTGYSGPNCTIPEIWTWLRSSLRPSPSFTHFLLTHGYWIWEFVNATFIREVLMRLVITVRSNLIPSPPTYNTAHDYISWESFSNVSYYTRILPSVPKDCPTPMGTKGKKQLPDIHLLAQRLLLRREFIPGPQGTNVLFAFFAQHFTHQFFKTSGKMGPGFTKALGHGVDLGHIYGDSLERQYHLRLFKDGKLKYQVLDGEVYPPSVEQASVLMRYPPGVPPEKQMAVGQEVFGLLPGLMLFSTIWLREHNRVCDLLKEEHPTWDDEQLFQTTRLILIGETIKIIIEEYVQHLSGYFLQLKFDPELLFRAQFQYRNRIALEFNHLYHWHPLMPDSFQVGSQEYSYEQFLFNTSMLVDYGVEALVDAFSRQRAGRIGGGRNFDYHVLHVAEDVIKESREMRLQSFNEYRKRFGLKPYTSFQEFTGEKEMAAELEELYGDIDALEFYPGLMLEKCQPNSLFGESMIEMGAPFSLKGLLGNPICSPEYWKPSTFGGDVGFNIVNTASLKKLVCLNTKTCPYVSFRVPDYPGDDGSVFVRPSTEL

[4] = target: T2, Muscarinic acetylcholine receptor M2 (Homo sapiens, UniProt P08172); type: functional, cell-based
T2 sequence (P08172 whole entry): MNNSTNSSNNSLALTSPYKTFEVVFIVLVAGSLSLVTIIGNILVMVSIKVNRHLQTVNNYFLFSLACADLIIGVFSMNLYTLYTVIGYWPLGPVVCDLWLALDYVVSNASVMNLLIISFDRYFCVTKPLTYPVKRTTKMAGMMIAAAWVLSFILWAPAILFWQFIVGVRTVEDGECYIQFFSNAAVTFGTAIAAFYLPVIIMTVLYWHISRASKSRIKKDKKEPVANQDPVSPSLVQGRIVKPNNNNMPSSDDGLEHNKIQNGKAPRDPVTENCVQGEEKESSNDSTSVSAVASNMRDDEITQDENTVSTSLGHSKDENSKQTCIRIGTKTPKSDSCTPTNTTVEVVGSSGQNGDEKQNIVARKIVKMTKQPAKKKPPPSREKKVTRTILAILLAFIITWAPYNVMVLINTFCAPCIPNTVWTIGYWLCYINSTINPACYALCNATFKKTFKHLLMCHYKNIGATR

[5] = target: cGMP-inhibited 3',5'-cyclic phosphodiesterase 3A (Homo sapiens, UniProt Q14432); type: functional
[6] = target: Voltage-dependent L-type calcium channel subunit alpha-1C (Rattus norvegicus, UniProt P22002); type: functional
Sequence of Voltage-dependent L-type calcium channel subunit alpha-1C (P22002 whole entry): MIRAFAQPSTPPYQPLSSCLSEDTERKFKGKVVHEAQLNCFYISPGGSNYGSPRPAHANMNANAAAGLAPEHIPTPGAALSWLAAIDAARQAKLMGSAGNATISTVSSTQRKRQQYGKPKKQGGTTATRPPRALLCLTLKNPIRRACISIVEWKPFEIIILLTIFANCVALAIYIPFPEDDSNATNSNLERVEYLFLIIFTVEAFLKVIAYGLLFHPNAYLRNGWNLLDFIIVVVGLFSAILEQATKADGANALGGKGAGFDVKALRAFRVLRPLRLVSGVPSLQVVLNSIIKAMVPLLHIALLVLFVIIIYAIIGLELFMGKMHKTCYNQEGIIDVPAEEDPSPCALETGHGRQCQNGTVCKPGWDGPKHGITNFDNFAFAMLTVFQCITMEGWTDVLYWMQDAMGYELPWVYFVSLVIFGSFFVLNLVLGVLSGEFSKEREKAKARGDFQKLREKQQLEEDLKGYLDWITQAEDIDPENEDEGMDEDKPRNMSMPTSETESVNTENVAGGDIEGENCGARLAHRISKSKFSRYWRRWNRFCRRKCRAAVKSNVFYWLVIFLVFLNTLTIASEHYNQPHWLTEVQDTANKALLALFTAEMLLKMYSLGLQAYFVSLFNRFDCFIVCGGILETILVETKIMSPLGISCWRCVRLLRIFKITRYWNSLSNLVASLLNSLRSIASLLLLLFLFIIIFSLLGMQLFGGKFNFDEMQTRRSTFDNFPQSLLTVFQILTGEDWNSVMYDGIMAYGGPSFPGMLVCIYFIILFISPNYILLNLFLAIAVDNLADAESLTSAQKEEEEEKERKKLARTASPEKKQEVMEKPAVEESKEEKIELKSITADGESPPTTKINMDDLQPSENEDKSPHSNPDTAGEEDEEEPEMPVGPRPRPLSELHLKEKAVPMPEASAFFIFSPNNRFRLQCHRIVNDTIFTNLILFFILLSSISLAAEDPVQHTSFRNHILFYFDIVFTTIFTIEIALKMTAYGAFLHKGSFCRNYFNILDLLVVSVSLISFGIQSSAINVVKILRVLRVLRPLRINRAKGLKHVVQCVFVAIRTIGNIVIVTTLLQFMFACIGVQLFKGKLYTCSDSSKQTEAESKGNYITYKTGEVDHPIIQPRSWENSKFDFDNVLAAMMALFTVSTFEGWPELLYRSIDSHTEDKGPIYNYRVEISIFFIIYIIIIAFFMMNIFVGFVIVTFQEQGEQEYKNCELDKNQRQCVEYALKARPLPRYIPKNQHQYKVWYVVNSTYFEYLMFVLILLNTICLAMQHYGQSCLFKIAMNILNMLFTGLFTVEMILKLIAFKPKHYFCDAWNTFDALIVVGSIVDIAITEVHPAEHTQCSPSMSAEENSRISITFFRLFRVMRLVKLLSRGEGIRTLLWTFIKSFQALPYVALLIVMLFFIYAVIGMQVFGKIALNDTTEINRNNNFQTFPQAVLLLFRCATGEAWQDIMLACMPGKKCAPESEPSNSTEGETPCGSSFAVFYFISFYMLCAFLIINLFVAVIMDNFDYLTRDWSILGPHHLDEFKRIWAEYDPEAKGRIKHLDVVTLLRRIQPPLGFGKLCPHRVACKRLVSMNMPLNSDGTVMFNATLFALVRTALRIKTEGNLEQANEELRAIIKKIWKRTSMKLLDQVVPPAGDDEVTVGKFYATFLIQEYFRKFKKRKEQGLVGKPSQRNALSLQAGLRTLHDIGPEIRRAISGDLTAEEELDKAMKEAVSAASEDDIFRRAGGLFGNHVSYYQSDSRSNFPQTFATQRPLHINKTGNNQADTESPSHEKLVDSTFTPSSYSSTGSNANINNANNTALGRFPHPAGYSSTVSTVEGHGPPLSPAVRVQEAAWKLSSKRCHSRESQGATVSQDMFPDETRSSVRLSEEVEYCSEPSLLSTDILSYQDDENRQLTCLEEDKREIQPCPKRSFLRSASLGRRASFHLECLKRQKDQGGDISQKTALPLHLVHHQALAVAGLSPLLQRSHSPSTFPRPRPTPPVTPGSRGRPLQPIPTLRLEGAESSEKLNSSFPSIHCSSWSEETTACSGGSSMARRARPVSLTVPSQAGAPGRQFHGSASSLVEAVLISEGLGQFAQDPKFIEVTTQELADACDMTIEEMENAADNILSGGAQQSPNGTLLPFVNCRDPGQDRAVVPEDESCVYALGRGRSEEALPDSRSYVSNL

[7] = target: Glutamate receptor ionotropic, NMDA 1 (Rattus norvegicus, UniProt P35439)
[8] = target: T3, Adenosine receptor A3 (Homo sapiens, UniProt P0DMS8)
T3 sequence (P0DMS8 whole entry): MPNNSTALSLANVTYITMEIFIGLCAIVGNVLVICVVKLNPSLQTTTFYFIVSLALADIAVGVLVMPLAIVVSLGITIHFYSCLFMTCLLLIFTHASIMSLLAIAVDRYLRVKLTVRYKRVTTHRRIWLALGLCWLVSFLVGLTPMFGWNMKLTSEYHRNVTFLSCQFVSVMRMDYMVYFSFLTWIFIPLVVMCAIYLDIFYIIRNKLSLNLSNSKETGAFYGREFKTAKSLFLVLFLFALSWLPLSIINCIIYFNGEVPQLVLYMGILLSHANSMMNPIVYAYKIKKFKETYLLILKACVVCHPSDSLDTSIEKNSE

[9] = target: Adenosine receptor A2a (Homo sapiens, UniProt P29274)
Sequence of Adenosine receptor A2a (P29274 whole entry): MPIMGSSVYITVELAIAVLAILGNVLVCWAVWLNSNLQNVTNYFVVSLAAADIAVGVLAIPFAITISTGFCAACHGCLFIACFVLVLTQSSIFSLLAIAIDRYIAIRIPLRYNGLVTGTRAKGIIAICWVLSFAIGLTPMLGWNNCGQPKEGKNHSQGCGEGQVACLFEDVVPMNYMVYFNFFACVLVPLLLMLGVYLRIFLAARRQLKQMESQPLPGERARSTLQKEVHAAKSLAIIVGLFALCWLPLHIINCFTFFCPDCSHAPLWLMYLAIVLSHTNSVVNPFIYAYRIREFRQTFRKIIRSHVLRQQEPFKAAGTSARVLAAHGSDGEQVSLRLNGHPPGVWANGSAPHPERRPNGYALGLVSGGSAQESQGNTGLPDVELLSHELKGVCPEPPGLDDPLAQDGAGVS

[10] = target: Motilin receptor (Homo sapiens, UniProt O43193)
Sequence of Motilin receptor (O43193 whole entry): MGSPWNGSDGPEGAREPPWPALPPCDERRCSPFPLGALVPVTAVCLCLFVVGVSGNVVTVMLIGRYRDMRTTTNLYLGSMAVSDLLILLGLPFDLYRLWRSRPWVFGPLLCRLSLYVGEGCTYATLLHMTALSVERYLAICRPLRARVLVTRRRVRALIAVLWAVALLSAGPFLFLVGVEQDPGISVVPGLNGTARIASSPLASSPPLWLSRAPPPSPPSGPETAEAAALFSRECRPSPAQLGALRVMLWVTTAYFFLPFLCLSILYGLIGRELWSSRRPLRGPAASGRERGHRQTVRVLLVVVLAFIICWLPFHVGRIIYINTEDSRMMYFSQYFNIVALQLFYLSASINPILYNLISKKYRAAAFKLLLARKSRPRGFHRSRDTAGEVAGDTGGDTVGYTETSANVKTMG

[11] = target: T4, Type-1 angiotensin II receptor (Homo sapiens, UniProt P30556)
T4 sequence (P30556 whole entry): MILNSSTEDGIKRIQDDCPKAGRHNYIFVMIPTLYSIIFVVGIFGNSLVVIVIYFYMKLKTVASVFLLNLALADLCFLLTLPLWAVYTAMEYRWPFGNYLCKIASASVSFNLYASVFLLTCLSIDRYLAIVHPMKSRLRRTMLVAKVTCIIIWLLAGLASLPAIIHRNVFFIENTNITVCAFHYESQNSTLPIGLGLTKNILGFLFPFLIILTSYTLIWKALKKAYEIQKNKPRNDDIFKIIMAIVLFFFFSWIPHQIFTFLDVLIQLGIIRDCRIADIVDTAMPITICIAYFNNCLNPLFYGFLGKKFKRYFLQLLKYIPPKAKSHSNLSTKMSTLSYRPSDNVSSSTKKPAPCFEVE

[12] = target: Histamine H3 receptor (Homo sapiens, UniProt Q9Y5N1)
Sequence of Histamine H3 receptor (Q9Y5N1 whole entry): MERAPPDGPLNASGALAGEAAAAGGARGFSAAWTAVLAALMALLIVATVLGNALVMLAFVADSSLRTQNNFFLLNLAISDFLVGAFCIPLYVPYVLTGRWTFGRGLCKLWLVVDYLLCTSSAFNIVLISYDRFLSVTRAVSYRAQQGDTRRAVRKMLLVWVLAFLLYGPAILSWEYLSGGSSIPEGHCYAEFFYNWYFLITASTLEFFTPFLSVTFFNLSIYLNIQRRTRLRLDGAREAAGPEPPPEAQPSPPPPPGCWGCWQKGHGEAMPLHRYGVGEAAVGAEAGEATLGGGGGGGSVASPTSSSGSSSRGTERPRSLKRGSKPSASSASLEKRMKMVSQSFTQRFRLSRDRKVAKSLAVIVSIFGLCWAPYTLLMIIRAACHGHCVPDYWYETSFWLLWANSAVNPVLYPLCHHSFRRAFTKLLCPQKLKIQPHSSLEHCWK

Measured: AC50
Note: assay procedure not described here.

Sequence of Sodium-dependent noradrenaline transporter (P23975 whole entry): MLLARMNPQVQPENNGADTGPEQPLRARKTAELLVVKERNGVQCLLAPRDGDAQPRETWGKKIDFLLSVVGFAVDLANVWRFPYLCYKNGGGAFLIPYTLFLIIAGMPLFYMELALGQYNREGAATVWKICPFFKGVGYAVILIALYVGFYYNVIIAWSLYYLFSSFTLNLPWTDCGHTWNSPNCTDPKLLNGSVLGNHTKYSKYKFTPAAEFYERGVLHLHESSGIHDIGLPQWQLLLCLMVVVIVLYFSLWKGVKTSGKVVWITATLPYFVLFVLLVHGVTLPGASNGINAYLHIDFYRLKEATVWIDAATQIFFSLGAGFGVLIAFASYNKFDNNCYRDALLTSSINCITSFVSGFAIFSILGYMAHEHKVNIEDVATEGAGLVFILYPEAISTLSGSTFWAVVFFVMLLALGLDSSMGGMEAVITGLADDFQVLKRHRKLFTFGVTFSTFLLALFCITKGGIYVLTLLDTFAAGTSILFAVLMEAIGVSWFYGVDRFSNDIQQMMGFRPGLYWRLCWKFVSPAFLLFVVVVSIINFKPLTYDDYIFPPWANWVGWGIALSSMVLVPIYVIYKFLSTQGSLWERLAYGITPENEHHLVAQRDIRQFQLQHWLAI
Sequence of Delta-type opioid receptor (P41143 whole entry): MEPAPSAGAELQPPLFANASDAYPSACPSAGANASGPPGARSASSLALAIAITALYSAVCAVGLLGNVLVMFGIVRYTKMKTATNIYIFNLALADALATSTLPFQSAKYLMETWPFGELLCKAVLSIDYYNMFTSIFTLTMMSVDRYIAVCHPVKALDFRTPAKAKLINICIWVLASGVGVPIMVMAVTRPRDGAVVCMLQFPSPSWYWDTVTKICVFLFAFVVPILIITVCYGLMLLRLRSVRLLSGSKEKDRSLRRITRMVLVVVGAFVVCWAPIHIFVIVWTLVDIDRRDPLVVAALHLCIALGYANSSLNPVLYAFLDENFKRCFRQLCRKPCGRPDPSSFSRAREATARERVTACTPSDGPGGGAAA

O=C(O)c1cccnc1Nc1cccc(C(F)(F)F)c1 [NIFLUMIC ACID]
> 30 µM: [1] | [5]
30 µM: [3]
> 10 µM: [2] | [4] | [6] | [7] | [8] | [9] | [10] | [11]

Cc1ccccc1-n1c(CF)nc2ccc(N)cc2c1=O [AFLOQUALONE]
> 10 µM: [4] | [6] | [7]
> 30 µM: [1] | [2] | [5] | [8] | [9] | [12] | [10] | [11]
27.9 µM: [3]

OC[C@H]1O[C@@H](n2cnc3c2NC=NC[C@H]3O)C[C@@H]1O [PENTOSTATIN]
> 30 µM: [1] | [2] | [4] | [5] | [7] | [12] | [10] | [11]
3.4 µM: [9]
6.6 µM: [3]
3.6 µM: [8]

COc1ccc([C@@H]2CC(=O)c3c(O)cc(O)cc3O2)cc1O [HESPERETIN]
30.7 µM: [3]
> 10 µM: [2] | [4] | [6] | [7] | [8] | [9] | [10] | [11]
> 30 µM: [1]
21 µM: [5]

CCCN1CC(NS(=O)(=O)N(CC)CC)CC2Cc3c(O)cccc3CC21 (stereo unspecified) [QUINAGOLIDE]
> 30 µM: [1] | [3] | [4] | [5] | [6] | [7] | [8] | [9] | [12] | [10] | [11]
21 µM: [2]

NC[C@H]1CC[C@H](C(=O)Oc2ccc(CCC(=O)O)cc2)CC1 [CETRAXATE]
> 30 µM: [1] | [4] | [5] | [7]

CN(C)C/C=C/C(=O)Nc1cc2c(Nc3ccc(F)c(Cl)c3)ncnc2cc1O[C@H]1CCOC1 [AFATINIB]
> 30 µM: [1] | [2] | [3] | [4] | [5] | [7] | [8] | [9] | [12] | [10] | [11]

C[C@]12C=CC(=O)C=C1CC[C@@H]1[C@@H]2CC[C@]2(C)OC(=O)CC[C@@H]12 [TESTOLACTONE]
> 30 µM: [1] | [5]
> 10 µM: [2] | [3] | [4] | [6] | [7] | [8] | [9] | [10] | [11]

CC(Cc1cccc(C(F)(F)F)c1)NCCOC(=O)c1ccccc1 (stereo unspecified) [BENFLUOREX]
28 µM: [8]
23 µM: [2]
> 30 µM: [1] | [7] | [9] | [12] | [10] | [11]

Cc1ccccc1N1C(=O)c2cc(S(N)(=O)=O)c(Cl)cc2NC1C (stereo unspecified) [METOLAZONE]
> 30 µM: [1] | [5]
> 10 µM: [2] | [3] | [4] | [6] | [7] | [8] | [9] | [10] | [11]

C/C=C(/C(=C/C)c1ccc(O)cc1)c1ccc(O)cc1 [DIENESTROL]
7.3 µM: [8]
> 10 µM: [4] | [6] | [7] | [10] | [11]
21 µM: [1]
> 30 µM: [2] | [3] | [5] | [9]

CN(C)CCCN1c2ccccc2CCc2ccccc21 [IMIPRAMINE]
30.8 µM: [8]
> 10 µM: [1] | [4] | [5] | [12] | [10]
> 30 µM: [3] | [9] | [11]

CCC[C@@H]1C[C@@H](C(=O)N[C@@H]([C@H]2O[C@H](SC)[C@H](O)[C@@H](O)[C@H]2O)[C@@H](C)O)N(C)C1 [LINCOMYCIN]
> 10 µM: [2] | [3] | [4] | [6] | [7] | [8] | [9] | [10] | [11]
> 30 µM: [1] | [5]

O=C(/C=C/c1cccc(S(=O)(=O)Nc2ccccc2)c1)NO [BELINOSTAT]
> 10 µM: [2] | [6] | [7] | [12] | [10]
> 30 µM: [1] | [5] | [8] | [9] | [11]

CC(C)c1cccc(C(C)C)c1O [PROPOFOL]
> 3 µM: [3]
> 30 µM: [1] | [2] | [4] | [5] | [8] | [9] | [12] | [10] | [11]

C[N+]1(C)CCC(=C(c2ccccc2)c2ccccc2)CC1
> 30 µM: [1] | [5] | [8] | [9] | [10]
> 10 µM: [2] | [3] | [6] | [7] | [11]

CCC1(c2ccc(N)cc2)CCC(=O)NC1=O (stereo unspecified) [AMINOGLUTETHIMIDE]
10 µM: [5]
> 30 µM: [1] | [2] | [3] | [4] | [7] | [8] | [9] | [12] | [10] | [11]

O=C1OC(OC(=O)c2cccnc2Nc2cccc(C(F)(F)F)c2)c2ccccc21 (stereo unspecified) [TALNIFLUMATE]
> 30 µM: [1] | [2] | [3] | [4] | [5] | [7] | [8] | [9] | [12] | [10] | [11]

C=C1c2cccc(O)c2C(=O)C2=C(O)[C@]3(O)C(=O)C(C(N)=O)=C(O)[C@@H](N(C)C)[C@@H]3[C@@H](O)[C@H]12 [METHACYCLINE]
> 10 µM: [2] | [4] | [6] | [7] | [11]
> 30 µM: [1] | [3] | [5] | [8] | [9] | [10]
